We go through 22 compounds from patent publication US10221197B2, “Phosphatidylinositol 3-kinase inhibitors” (Gilead Sciences, Inc., priority 2014, dated 2019).

Usually pIC50 stands for the negative decadic logarithm of the IC50, by convention in mol/L.

Common to all, as to format: biochemical
In one test the target is PI3Kγ (Homo sapiens (Human), UniProt P48736). Briefly: TR-FRET enzymatic assay of PI3K isoforms (PI3Kγ). The following applies: TR-FRET, 2×Km ATP, 2 μM PIP2, PI3Kγ at 2 nM, incubated for 30 minutes at 25° C.; read-out: γ IC50. The procedure:
(§1) The compounds of formula (I) were characterized for their enzymatic activity against the PI3K isoforms. Certain compounds of the present application, including certain compounds of formula (II) and (III) were also characterized for their enzymatic activity against PI3K isoforms. The activities were measured using a time-resolved fluorescence resonance energy transfer (TR-FRET) assay.
A general note: In TR-FRET formats the signal depends on donor and acceptor labels being close together.

For another test, the target named is PI3Kβ (Homo sapiens (Human), UniProt P42338). Briefly: TR-FRET enzymatic assay of PI3K isoforms (PI3Kβ). The following applies: TR-FRET, 2×Km ATP, 2 μM PIP2, incubated for 30 minutes at 25° C.; read-out: β IC50. The method, then: as §1
Chain of PI3Kβ (P42338 whole entry, canonical isoform): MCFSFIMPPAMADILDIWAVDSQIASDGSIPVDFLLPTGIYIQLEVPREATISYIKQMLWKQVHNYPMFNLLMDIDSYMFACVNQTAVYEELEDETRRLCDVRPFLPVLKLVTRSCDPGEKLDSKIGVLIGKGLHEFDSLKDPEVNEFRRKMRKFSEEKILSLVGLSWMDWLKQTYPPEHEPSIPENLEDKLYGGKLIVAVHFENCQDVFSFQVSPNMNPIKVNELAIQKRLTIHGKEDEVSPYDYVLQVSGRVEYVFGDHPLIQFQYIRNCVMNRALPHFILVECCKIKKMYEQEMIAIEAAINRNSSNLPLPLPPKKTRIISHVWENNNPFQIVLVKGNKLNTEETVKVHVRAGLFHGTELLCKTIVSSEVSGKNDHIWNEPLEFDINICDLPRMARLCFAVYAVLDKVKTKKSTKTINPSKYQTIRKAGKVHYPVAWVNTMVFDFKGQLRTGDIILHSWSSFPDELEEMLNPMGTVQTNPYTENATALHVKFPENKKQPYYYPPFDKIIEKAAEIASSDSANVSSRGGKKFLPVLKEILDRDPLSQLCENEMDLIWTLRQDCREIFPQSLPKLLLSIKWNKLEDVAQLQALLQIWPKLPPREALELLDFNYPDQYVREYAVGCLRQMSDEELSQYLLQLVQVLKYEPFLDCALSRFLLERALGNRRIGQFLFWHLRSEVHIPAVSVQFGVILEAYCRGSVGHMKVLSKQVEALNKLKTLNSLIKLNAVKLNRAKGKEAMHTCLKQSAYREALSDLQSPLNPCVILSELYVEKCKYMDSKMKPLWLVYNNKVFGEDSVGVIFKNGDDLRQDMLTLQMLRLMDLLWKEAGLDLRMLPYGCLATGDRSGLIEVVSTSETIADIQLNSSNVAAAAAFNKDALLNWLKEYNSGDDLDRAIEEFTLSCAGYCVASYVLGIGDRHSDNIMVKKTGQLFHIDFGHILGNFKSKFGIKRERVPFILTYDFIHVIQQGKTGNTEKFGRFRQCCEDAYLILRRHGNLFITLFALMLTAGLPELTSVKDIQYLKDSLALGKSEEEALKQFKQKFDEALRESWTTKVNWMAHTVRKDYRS
Chain of PI3Kβ (P27986 whole entry partner, canonical isoform): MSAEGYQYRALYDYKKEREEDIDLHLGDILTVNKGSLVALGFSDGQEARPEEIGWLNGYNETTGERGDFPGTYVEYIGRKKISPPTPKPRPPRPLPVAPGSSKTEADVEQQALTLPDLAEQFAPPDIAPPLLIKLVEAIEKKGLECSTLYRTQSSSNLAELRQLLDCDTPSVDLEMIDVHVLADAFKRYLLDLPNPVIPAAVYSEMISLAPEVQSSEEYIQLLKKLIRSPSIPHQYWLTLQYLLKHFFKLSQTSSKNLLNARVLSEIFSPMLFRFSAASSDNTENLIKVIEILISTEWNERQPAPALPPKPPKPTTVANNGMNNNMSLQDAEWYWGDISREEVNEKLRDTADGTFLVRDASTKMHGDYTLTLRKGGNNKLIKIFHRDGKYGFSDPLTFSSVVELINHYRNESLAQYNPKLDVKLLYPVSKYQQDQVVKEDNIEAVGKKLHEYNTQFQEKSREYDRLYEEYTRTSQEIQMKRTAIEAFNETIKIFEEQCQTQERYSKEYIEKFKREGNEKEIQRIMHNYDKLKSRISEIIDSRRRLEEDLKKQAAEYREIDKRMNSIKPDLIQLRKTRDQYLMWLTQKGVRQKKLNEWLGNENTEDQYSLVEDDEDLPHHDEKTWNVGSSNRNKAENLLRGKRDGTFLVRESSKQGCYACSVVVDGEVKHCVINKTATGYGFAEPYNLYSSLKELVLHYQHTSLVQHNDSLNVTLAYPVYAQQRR
Another test addresses PI3Kδ (Homo sapiens (Human), UniProt O00329). Put plainly: TR-FRET enzymatic assay of PI3K isoforms (PI3Kδ). Conditions: 2×Km ATP, 2 μM PIP2, incubated for 30 minutes at 25° C., read-out: δ IC50. The method, then: as §1

pIC50: −log10 of the molar value. Structures can show the parent of a compound that is named as a salt.

Chain of PI3Kδ (O00329 whole entry, canonical isoform): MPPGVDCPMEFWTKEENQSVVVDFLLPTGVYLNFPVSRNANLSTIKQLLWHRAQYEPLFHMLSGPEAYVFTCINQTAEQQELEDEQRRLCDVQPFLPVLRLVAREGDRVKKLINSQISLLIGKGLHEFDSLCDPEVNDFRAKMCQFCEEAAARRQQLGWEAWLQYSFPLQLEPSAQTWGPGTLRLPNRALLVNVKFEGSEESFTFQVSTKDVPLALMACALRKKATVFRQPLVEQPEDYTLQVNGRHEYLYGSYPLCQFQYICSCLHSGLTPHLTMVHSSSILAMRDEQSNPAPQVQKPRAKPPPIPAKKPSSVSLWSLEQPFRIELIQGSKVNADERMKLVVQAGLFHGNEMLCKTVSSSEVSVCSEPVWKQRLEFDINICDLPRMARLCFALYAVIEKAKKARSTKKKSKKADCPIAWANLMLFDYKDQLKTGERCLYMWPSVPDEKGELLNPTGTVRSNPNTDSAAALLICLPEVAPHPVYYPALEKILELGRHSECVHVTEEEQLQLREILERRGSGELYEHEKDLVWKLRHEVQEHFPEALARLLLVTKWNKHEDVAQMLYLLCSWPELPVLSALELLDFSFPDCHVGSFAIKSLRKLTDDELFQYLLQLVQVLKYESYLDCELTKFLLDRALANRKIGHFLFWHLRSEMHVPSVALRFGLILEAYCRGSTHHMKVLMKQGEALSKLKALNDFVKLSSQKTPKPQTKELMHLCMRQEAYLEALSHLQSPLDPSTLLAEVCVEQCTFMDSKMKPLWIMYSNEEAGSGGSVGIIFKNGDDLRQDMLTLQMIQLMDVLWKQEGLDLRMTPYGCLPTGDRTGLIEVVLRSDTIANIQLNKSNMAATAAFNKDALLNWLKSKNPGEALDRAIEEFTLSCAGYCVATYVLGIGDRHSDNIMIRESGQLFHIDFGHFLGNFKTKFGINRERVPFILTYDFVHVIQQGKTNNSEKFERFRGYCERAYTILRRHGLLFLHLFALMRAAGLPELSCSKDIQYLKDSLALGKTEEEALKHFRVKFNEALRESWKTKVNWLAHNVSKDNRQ
Chain of PI3Kδ (P27986 whole entry partner, canonical isoform): as the sequence (P27986 whole entry partner, canonical isoform) above
Chain of PI3Kγ (P48736 whole entry, canonical isoform): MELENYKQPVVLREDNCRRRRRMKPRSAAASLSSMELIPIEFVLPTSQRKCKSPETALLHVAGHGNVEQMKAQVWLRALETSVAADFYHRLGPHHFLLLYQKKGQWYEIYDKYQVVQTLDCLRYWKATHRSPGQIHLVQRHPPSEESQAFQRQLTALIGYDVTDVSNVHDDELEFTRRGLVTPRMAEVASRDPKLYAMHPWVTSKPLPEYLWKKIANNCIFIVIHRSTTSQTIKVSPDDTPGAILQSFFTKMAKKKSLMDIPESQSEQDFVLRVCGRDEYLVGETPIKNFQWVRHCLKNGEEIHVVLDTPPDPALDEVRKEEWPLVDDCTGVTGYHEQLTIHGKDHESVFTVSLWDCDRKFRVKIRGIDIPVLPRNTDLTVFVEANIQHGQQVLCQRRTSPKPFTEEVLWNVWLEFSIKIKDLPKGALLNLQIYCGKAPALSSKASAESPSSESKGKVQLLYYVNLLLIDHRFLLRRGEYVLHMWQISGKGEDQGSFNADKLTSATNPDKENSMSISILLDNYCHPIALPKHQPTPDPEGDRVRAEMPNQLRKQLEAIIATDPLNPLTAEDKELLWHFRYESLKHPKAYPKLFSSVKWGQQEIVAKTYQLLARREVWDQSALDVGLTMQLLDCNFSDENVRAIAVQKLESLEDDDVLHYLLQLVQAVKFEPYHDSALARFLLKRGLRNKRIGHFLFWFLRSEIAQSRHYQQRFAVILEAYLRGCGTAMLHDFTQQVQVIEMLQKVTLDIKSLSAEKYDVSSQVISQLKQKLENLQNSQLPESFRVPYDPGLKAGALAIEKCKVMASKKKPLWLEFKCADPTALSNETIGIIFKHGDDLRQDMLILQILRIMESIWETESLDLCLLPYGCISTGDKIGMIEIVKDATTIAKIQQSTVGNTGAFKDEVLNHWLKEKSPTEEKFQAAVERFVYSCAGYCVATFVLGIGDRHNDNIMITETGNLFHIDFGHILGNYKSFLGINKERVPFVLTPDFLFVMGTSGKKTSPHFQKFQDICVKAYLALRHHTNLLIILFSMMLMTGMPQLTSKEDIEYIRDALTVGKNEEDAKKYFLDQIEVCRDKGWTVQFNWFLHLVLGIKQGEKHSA
Chain of PI3Kγ (Q8WYR1 whole entry partner, canonical isoform): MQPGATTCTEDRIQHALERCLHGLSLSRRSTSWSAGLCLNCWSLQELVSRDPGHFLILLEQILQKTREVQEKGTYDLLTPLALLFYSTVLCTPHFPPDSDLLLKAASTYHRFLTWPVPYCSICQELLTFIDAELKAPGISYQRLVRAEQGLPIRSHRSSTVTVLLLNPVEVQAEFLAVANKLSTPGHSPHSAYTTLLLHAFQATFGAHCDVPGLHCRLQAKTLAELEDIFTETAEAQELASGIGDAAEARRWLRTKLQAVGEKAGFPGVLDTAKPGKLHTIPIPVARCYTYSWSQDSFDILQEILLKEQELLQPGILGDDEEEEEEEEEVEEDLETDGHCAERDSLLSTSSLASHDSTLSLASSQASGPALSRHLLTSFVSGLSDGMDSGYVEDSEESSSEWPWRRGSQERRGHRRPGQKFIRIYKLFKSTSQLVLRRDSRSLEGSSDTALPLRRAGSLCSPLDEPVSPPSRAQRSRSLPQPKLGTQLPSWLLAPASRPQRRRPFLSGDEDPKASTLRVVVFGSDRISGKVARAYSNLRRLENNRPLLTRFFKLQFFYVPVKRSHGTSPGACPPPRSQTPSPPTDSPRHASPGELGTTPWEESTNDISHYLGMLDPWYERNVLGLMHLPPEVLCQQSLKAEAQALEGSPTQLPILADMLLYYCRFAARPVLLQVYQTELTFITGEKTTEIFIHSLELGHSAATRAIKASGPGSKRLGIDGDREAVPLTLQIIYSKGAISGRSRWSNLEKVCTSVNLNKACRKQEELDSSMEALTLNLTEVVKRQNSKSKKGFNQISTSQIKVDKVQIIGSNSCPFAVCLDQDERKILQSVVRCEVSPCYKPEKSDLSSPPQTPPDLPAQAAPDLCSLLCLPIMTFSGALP

As for `CCNC(=O)Nc1cccc(-n2c([C@H](C)Nc3ncnc(N)c3C#N)nc3ccccc3c2=O)c1` [Compound 52, (S)-1-(3-(2-(1-((6-amino-5-cyanopyrimidin-4-yl)amino)ethyl)-4-oxoquinazolin-3(4H)-yl)phenyl)-3-ethylurea], the pIC50 on PI3Kγ was under 5.00; on PI3Kβ, 6.47; on PI3Kδ, 7.41.

For `CCNC(=O)Nc1cccc(-n2c([C@H](C)Nc3ncnc(N)c3C#N)nc3ccc(F)cc3c2=O)c1` [Compound 53, (S)-1-(3-(2-(1-((6-amino-5-cyanopyrimidin-4-yl)amino)ethyl)-6-fluoro-4-oxoquinazolin-3(4H)-yl)phenyl)-3-ethylurea], the pIC50 is under 5.00 on PI3Kγ, 6.26 on PI3Kβ and 7.12 on PI3Kδ.

Take `CCNC(=O)Nc1cccc(-n2c([C@H](C)Nc3ncnc(N)c3C#N)nc3cc(F)ccc3c2=O)c1` [Compound 54, (S)-1-(3-(2-(1-((6-amino-5-cyanopyrimidin-4-yl)amino)ethyl)-7-fluoro-4-oxoquinazolin-3(4H)-yl)phenyl)-3-ethylurea]: the pIC50 at PI3Kγ is under 5.00; at PI3Kβ, 5.59; on PI3Kδ, 6.60.

Turning to `CCNC(=O)Nc1cccc(-n2c([C@H](C)Nc3ncnc(N)c3C#N)nc3cccc(C)c3c2=O)c1` [Compound 55, (S)-1-(3-(2-(1-((6-amino-5-cyanopyrimidin-4-yl)amino)ethyl)-5-methyl-4-oxoquinazolin-3(4H)-yl)phenyl)-3-ethylurea], the values for the pIC50 at PI3Kγ, at PI3Kβ and on PI3Kδ were 5.74, 7.92 and 8.52, respectively.

Turning to `CCNC(=O)Nc1cccc(-n2c([C@H](C)Nc3ncnc(N)c3C#N)nc3cccc(OC)c3c2=O)c1` [Compound 56, (S)-1-(3-(2-(1-((6-amino-5-cyanopyrimidin-4-yl)amino)ethyl)-5-methoxy-4-oxoquinazolin-3(4H)-yl)phenyl)-3-ethylurea], the pIC50 on PI3Kγ was under 5.00; at PI3Kβ, 5.18; on PI3Kδ, 6.06.

Turning to `CCNC(=O)Nc1cccc(-n2c([C@H](C)N(C)c3ncnc(N)c3C#N)nc3cccc(Cl)c3c2=O)c1` [Compound 57, (S)-1-(3-(2-(1-((6-amino-5-cyanopyrimidin-4-yl)(methyl)amino)ethyl)-5-chloro-4-oxoquinazolin-3(4H)-yl)phenyl)-3-ethylurea], the pIC50 at PI3Kγ is under 5.00; at PI3Kβ it was 6.24; on PI3Kδ, 6.21.

As for `CCNC(=O)Nc1cccc(-n2c([C@H](C)Nc3ncnc(N)c3C#N)nc3c(F)ccc(Cl)c3c2=O)c1` [Compound 62, (S)-1-(3-(2-(1-((6-amino-5-cyanopyrimidin-4-yl)amino)ethyl)-5-chloro-8-fluoro-4-oxoquinazolin-3(4H)-yl)phenyl)-3-ethylurea], the negative-log IC50 (pIC50) at PI3Kγ is 5.42; on PI3Kβ, 8.15; on PI3Kδ, 8.40.

Take `C[C@H](Nc1ncnc(N)c1C#N)c1nc2c(Cl)ccc(Cl)c2c(=O)n1-c1cccc(NC(=O)NCCCO)c1` [Compound 64, (S)-1-(3-(2-(1-((6-amino-5-cyanopyrimidin-4-yl)amino)ethyl)-5,8-dichloro-4-oxoquinazolin-3(4H)-yl)phenyl)-3-(3-hydroxypropyl)urea]: the pIC50 was under 5.00 at PI3Kγ, 8.15 at PI3Kβ and 8.10 on PI3Kδ.

`C[C@H](Nc1ncnc(N)c1C#N)c1nc2c(Cl)cccc2c(=O)n1-c1cccc(NC(=O)NCCCO)c1` [Compound 65, (S)-1-(3-(2-(1-((6-amino-5-cyanopyrimidin-4-yl)amino)ethyl)-8-chloro-4-oxoquinazolin-3(4H)-yl)phenyl)-3-(3-hydroxypropyl)urea]: the results for the pIC50 at PI3Kγ, on PI3Kβ and at PI3Kδ were under 5.00, 6.66 and 7.09, respectively.

With `C[C@H](Nc1ncnc(N)c1C#N)c1nc2c(F)ccc(Cl)c2c(=O)n1-c1cccc(NC(=O)NCCCO)c1` [Compound 66, (S)-1-(3-(2-(1-((6-amino-5-cyanopyrimidin-4-yl)amino)ethyl)-5-chloro-8-fluoro-4-oxoquinazolin-3(4H)-yl)phenyl)-3-(3-hydroxypropyl)urea], the pIC50 is 5.43 at PI3Kγ, 8.40 on PI3Kβ and 8.05 at PI3Kδ.

Turning to `C[C@H](Nc1ncnc(N)c1C#N)c1nc2c(F)ccc(F)c2c(=O)n1-c1cccc(NC(=O)NCCCO)c1` [Compound 67, (S)-1-(3-(2-(1-((6-amino-5-cyanopyrimidin-4-yl)amino)ethyl)-5,8-difluoro-4-oxoquinazolin-3(4H)-yl)phenyl)-3-(3-hydroxypropyl)urea], the pIC50 at PI3Kγ is under 5.00; at PI3Kβ, 7.42; at PI3Kδ it was 7.01.

Take `C[C@H](Nc1ncnc(N)c1C#N)c1nc2c(F)cccc2c(=O)n1-c1cccc(NC(=O)NCCCO)c1` [Compound 68, (S)-1-(3-(2-(1-((6-amino-5-cyanopyrimidin-4-yl)amino)ethyl)-8-fluoro-4-oxoquinazolin-3(4H)-yl)phenyl)-3-(3-hydroxypropyl)urea]: the values for the negative-log IC50 (pIC50) on PI3Kγ, at PI3Kβ and on PI3Kδ were under 5.00, 6.66 and 6.89, respectively.

For `CCNC(=O)Nc1cccc(-n2c([C@H](C)Nc3ncnc(N)c3C#N)nc3cccc(C#N)c3c2=O)c1` [Compound 69, (S)-1-(3-(2-(1-((6-amino-5-cyanopyrimidin-4-yl)amino)ethyl)-5-cyano-4-oxoquinazolin-3(4H)-yl)phenyl)-3-ethylurea 2,2,2-trifluoroacetic acid salt], the results for the negative logarithm of the IC50 (pIC50) on PI3Kγ, at PI3Kβ and at PI3Kδ were 5.28, 6.96 and 8.10, respectively.

For `CCNC(=O)Nc1cccc(-n2c([C@H](C)Oc3ncnc(N)c3C#N)nc3cccc(Cl)c3c2=O)c1` [Compound 70, (S)-1-(3-(2-(1-((6-amino-5-cyanopyrimidin-4-yl)oxy)ethyl)-5-chloro-4-oxoquinazolin-3(4H)-yl)phenyl)-3-ethylurea], the pIC50 at PI3Kγ is 5.82; at PI3Kβ it was 7.92; at PI3Kδ it was 8.70.

As for `CCNC(=O)Nc1cccc(-n2c([C@H](C)Nc3ncnc4scnc34)nc3cccc(Cl)c3c2=O)c1` [Compound 72, (S)-1-(3-(5-chloro-4-oxo-2-(1-(thiazolo[5,4-d]pyrimidin-7-ylamino)ethyl)quinazolin-3(4H)-yl)phenyl)-3-ethylurea], the pIC50 on PI3Kγ was 5.89; at PI3Kβ it was 8.40; at PI3Kδ, 8.30.

`CCNC(=O)Nc1cccc(-n2c([C@@H]3C[C@H](F)CN3c3ncnc(N)c3C#N)nc3cccc(Cl)c3c2=O)c1` [Compound 73, 1-(3-(2-((2S,4S)-1-(6-amino-5-cyanopyrimidin-4-yl)-4-fluoropyrrolidin-2-yl)-5-chloro-4-oxoquinazolin-3(4H)-yl)phenyl)-3-ethylurea]: the pIC50 on PI3Kγ is 5.25; at PI3Kβ, 7.42; on PI3Kδ it was 7.77.

As for `C[C@H](Nc1ncnc(N)c1C#N)c1nc2cccc(Cl)c2c(=O)n1-c1cccc(NC(=O)NC2(C(F)(F)F)CC2)c1` [Compound 75, (S)-1-(3-(2-(1-((6-amino-5-cyanopyrimidin-4-yl)amino)ethyl)-5-chloro-4-oxoquinazolin-3(4H)-yl)phenyl)-3-(1-(trifluoromethyl)cyclopropyl)urea], the values for the pIC50 at PI3Kγ, at PI3Kβ and on PI3Kδ were under 5.00, 8.00 and 8.05, respectively.

On to `C[C@H](Nc1ncnc(N)c1C#N)c1nc2cccc(Cl)c2c(=O)n1-c1cccc(NC(=O)NCC(F)(F)F)c1` [Compound 76, (S)-1-(3-(2-(1-((6-amino-5-cyanopyrimidin-4-yl)amino)ethyl)-5-chloro-4-oxoquinazolin-3(4H)-yl)phenyl)-3-(2,2,2-trifluoroethyl)urea], for which the pIC50 at PI3Kγ is 5.36; at PI3Kβ, 8.30; on PI3Kδ, 8.15.

Regarding `CC(C)NC(=O)Nc1cc(-n2c([C@H](C)Nc3ncnc(N)c3C#N)nc3cccc(Cl)c3c2=O)ccc1F` [Compound 77, (S)-1-(5-(2-(1-((6-amino-5-cyanopyrimidin-4-yl)amino)ethyl)-5-chloro-4-oxoquinazolin-3(4H)-yl)-2-fluorophenyl)-3-isopropylurea], the pIC50 is 5.02 at PI3Kγ, 6.38 on PI3Kβ and 7.57 at PI3Kδ.

Turning to `CCNC(=O)Nc1cc(-n2c([C@H](C)Nc3ncnc(N)c3C#N)nc3cccc(Cl)c3c2=O)ccc1F` [Compound 78, (S)-1-(5-(2-(1-((6-amino-5-cyanopyrimidin-4-yl)amino)ethyl)-5-chloro-4-oxoquinazolin-3(4H)-yl)-2-fluorophenyl)-3-ethylurea], the pIC50 at PI3Kγ was 5.31; at PI3Kβ it was 7.80; at PI3Kδ, 7.49.

With `C[C@H](Nc1ncnc(N)c1C#N)c1nc2cccc(Cl)c2c(=O)n1-c1cccc(NC(=O)NS(=O)(=O)C2CCCC2)c1` [Compound 79, (S)—N-((3-(2-(1-((6-amino-5-cyanopyrimidin-4-yl)amino)ethyl)-5-chloro-4-oxoquinazolin-3(4H)-yl)phenyl)carbamoyl)cyclopentanesulfonamide], the pIC50 at PI3Kγ is 6.17; at PI3Kβ, 7.15; at PI3Kδ, 8.70.

On to `C[C@H](Nc1ncnc2scnc12)c1nc2cccc(Cl)c2c(=O)n1-c1cccc(NC(=O)NS(=O)(=O)C2CCCC2)c1` [Compound 80, (S)—N-((3-(5-chloro-4-oxo-2-(1-(thiazolo[5,4-d]pyrimidin-7-ylamino)ethyl)quinazolin-3(4H)-yl)phenyl)carbamoyl)cyclopentanesulfonamide], for which the pIC50 was 6.60 on PI3Kγ, 6.92 at PI3Kβ and 9.05 at PI3Kδ.
